# Reference: patent US8067204B2, “Long-chain chondroitin sugar chain and method for producing the same and method for promoting synthesis of chondroitin” (Seikagaku Corporation, priority 2005, dated 2011)
# Target: T1, bacterial cell enzyme (E. coli expressing CH polymerase K4CP) (Escherichia coli, UniProt Q8L0V4)
# T1 construct: His tag (from vector pTrcHis); expressed in transfected cells; host or cells: E. coli transformed with the pTrcHis-K4CP vector and induced with IPTG; The whole-cell pellet was used as the enzyme; TOP10 is named only as the preferred host
# T1 sequence (Q8L0V4 whole entry): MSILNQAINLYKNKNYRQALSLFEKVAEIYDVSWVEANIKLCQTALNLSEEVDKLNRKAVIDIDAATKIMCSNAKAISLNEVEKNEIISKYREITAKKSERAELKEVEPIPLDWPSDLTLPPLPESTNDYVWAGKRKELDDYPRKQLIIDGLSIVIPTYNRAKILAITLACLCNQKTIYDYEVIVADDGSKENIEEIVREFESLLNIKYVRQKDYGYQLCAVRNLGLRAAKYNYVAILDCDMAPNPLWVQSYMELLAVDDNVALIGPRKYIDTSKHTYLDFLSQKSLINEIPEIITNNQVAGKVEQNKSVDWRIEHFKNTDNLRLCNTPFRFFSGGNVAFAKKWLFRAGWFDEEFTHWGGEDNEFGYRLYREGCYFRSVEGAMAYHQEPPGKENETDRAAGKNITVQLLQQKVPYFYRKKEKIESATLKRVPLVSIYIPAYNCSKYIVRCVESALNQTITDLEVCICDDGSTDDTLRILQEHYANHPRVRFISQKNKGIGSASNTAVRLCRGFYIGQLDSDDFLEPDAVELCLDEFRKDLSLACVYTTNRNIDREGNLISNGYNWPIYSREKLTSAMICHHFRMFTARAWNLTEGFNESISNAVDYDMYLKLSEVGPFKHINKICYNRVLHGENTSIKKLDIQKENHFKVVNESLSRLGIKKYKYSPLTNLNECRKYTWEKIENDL
# Assay: Incorporation of [3H]GalNAc into the polymer (CH) fraction by the bacterial cell enzyme
# Type: biochemical, Escherichia coli K4 strain
# Conditions: for influence of surfactant on incorporation of [3H]GalNAc: FIG. 4
# Experimental: According to the method described in Japanese Patent Application No. 2003-199583, the gene of the CH polymerase (K4CP) enzyme derived from E. coli and an expression vector were prepared. the plasmid pTrcHis (manufactured by Invitrogen Corporation) was used as the expression vector. The expression vector obtained by the method was introduced to E. coli. The E. coli was cultured at 37° C. in an ampicillin-containing LB medium until absorbance of the culture medium reached about 0.6 at a wavelength of 600 nm. β-isopropylthiogalactoside (IPTG), which is an expression induction molecule, was added to the culture medium in such an amount that attains a final concentration of 1 mM, and culture was further performed at 37° C. for 3 hours to induce an enzyme expression. 1 ml of the culture medium was taken and transferred to a centrifugation tube to undergo centrifugation at 10,000 rpm for 1 minute. After the supernatant was discarded, a cell precipitate was used a bacterial cell enzyme. Further, the cell precipitate can maintain the enzymatic activity at least for 1 year by storing at −80° C.
# To the bacterial cell enzyme obtained in Example 1, 50 mM of Tris-HCl (pH of 7.2) buffer solution containing 20 mM of MnCl2, 150 mM of NaCl, 0.1 nmol of CH6, 3 nmol of UDP-GalNAc, 0.2 μCi of UDP-[^3H] GalNAc, and 3 nmol of UDP-GlcUA, and a surfactant (Nymeen S-215; manufactured by NOF CORPORATION) at a final concentration of 0, 0.1, 0.2, 0.4, 1.0, or 2.0% was added and suspended. Each of the suspensions was shaken at 30° C. for 15 hours. After the reaction, each of the suspensions was heat-treated for 10 minutes in boiling water, and then centrifuged at 15,000 rpm for 5 minutes to remove a precipitate. Each of the supernatants was subjected to gel filtration using Superdex peptide HR 10/30 column (manufactured by Amersham Biosciences Co., Ltd.). The sugar chains in each of the eluted solutions were detected based on the absorbance at 225 nm.
# An eluted fraction which corresponds to the absorption peak residing in a polymer region was obtained, and an incorporation of [^3H] GalNAc was detected. The incorporation was shown by the ratio (%) of the incorporated radioactivity with respect to the total radioactivity as 100%.
# (§1) The same test as Example 3 was performed using various kinds of surfactants each having a final concentration of 0.4% to examine how various kinds of surfactants influence on the incorporation of [^3H] GalNAc. As an enzyme, the bacterial cell enzyme produced in Example 1 was used. Further, the surfactants used are described below.
# as §1, with “organic solvents” for “surfactants”, “1%” for “0.4%”, “the influence of the” for “how”, “organic solvents” for “surfactants influence”, “prepared” for “produced”
# The incorporation was shown by the ratio (%) of the incorporated radioactivity with respect to the total radioactivity of [^3H] GalNAc used as 100%. It should be noted that the term “without organic solvent” in FIG. 5 means a case where the bacterial cell enzyme was reacted in the absence of organic solvents.
# Besides, in order to examine the concentration dependency in the case of using chloroform as an organic solvent, the same test as Example 3 was performed by setting chloroform concentration in the enzyme reaction solution to 0, 0.5, 1.0, 2.0, 5.0, or 10.0%, thereby the amount of incorporation of [^3H] GalNAc in the polymer fraction was examined.
# [1] = surfactant final concentration 0.4%
molecule,measurement,setting,value
"ClC(Cl)Cl [chloroform, Chloroform]","incorporation of [3H]GalNAc in the polymer fraction, dependence on chloroform concentration","chloroform concentration more than 0% to less than 5% (tested 0, 0.5, 1.0, 2.0, 5.0, 10.0%), FIG. 6",promoted
same,influence of organic solvent on incorporation of [3H]GalNAc,"organic solvent final concentration 1%, FIG. 5",promoted the incorporation
CCCCCCCCCS[C@@H]1O[C@H](CO)[C@@H](O[C@H]2O[C@H](CO)[C@@H](O)[C@H](O)[C@H]2O)[C@H](O)[C@H]1O [n-nonyl-β-D-thiomaltopyranoside],influence of surfactant on incorporation of [3H]GalNAc,[1],particularly efficient incorporation
Sucrose monocaprate,influence of surfactant on incorporation of [3H]GalNAc,[1],particularly efficient incorporation
Sucrose monolaurate,influence of surfactant on incorporation of [3H]GalNAc,[1],particularly efficient incorporation
polyoxyethylene octadecyl amine [Nymeen S-215],incorporation of [3H]GalNAc into the polymer fraction (ratio of incorporated to total radioactivity),"surfactant concentration 0.4% or more at the time of the enzyme reaction, 30° C., 15 hours, FIG. 1",about 37%
same,incorporation of used [3H]GalNAc into the polymer fraction,"surfactant final concentration 0.4%, Example 4, reconfirmation",about 37%
